Patent US11214594B2, “Antimicrobial peptide having synergistic antibacterial effect with antibiotics on multidrug resistant bacteria, and use thereof” (priority 2016, dated 2022)
≈ marks a conversion by molar mass, not a printed value. Read-outs that look alike come from different tables or passages of the source. Where a SMILES comes first, the peptide text is derived from it. [ ]: non-standard residue; d: D form.

Key:
[1] = test system: MDREC 1238; assay type: cell-based, Escherichia coli
How it was run: (§1)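 MIC read-out = lowest peptide level with no bacterial proliferation. Strains diluted in MH medium to 2×10^6 CFU; peptide twofold serial dilutions in MH added 1:1 in microtiter wells.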

[2] = test system: P. aeruginosa; experiment: microbe, parasite or virus in culture; assay type: cell-based, Pseudomonas aeruginosa
How it was run: as §1

[3] = test system: MDRPA 2002; assay type: cell-based, Pseudomonas aeruginosa
How it was run: as §1

[4] = test system: MDRPA 2003; assay type: cell-based, Pseudomonas aeruginosa
How it was run: as §1

[5] = test system: A. baumannii; experiment: microbe, parasite or virus in culture; assay type: cell-based, Acinetobacter baumannii
How it was run: as §1

[6] = test system: MDRAB 12035; experiment: microbe, parasite or virus in culture; assay type: cell-based, Acinetobacter baumannii
How it was run: as §1

[7] = test system: MDRAB 12036; assay type: cell-based, Acinetobacter baumannii
How it was run: as §1

[8] = test system: S. typhimurium; experiment: microbe, parasite or virus in culture; assay type: cell-based, Salmonella typhimurium
How it was run: as §1

[9] = test system: MDRST 8007; experiment: Minimal inhibitory concentration (MIC), single agent; assay type: cell-based, Salmonella typhimurium; conditions: agent alone
How it was run: as §1

[10] = test system: B. subtilis; experiment: microbe, parasite or virus in culture; assay type: cell-based, Bacillus subtilis
How it was run: as §1

[11] = test system: S. epidermidis; experiment: microbe, parasite or virus in culture; assay type: cell-based, Staphylococcus epidermidis
How it was run: as §1

[12] = test system: S. aureus; experiment: microbe, parasite or virus in culture; assay type: cell-based, Staphylococcus aureus
How it was run: as §1

[13] = test system: MRSA 3114; assay type: cell-based, Staphylococcus aureus; conditions: 3114
How it was run: as §1

[14] = test system: MRSA 3126; assay type: cell-based, Staphylococcus aureus; conditions: 3126
How it was run: as §1

[15] = test system: MDREC 1229; experiment: MIC of antibiotic during combined treatment with antimicrobial peptide; assay type: cell-based, Escherichia coli
How it was run: (§2)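 Antibiotic MIC came from antibiotic dilutions added to bacteria (2×10^6 CFU/ml, MH medium) already combined with peptide serially diluted 2:1 from its own MIC. Swapping the roles of the two agents gave the peptide MIC.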

[16] = test system: MDRAB 12035; experiment: as above; assay type: cell-based, Acinetobacter baumannii
How it was run: as §2

[17] = test system: E. coli; assay type: cell-based, Escherichia coli; conditions: E. coli
How it was run: as §2

[18] = test system: MDREC 1229; assay type: cell-based, Escherichia coli
How it was run: as §2

[19] = test system: A. baumannii; experiment: MIC of antimicrobial peptide during combined treatment with antibiotic; assay type: cell-based, Acinetobacter baumannii
How it was run: as §2

[20] = test system: MDRAB 12035; experiment: as above; assay type: cell-based, Acinetobacter baumannii
How it was run: as §2

[21] = peptide treatment concentration 1 μg/ml
[22] = peptide treatment concentration 2 μg/ml
[23] = peptide treatment concentration 4 μg/ml
[24] = peptide treatment concentration 6 μg/ml
[25] = peptide treatment concentration 8 μg/ml
[26] = peptide treatment concentration 16 μg/ml
[27] = peptide treatment concentration 32 μg/ml
[28] = peptide treatment concentration 64 μg/ml
[29] = linezolid 64 μg/ml (Conc./MIC 1/8)
[30] = linezolid 512 μg/ml (Conc./MIC 1)
[31] = vancomycin 512 μg/ml (Conc./MIC 1/2)
[32] = vancomycin 1024 μg/ml (Conc./MIC 1)
[33] = erythromycin 4 μg/ml (Conc./MIC 1/8)
[34] = erythromycin 8 μg/ml (Conc./MIC 1/4)
[35] = erythromycin 16 μg/ml (Conc./MIC 1/2)
[36] = erythromycin 32 μg/ml (Conc./MIC 1)

## CC[C@H](C)[C@H](NC(=O)[C@H](CCCCN)NC(=O)[C@H](Cc1c[nH]c2ccccc12)NC(=O)[C@@H](N)CCCNC(=N)N)C(=O)N[C@@H](Cc1ccccc1)C(=O)N[C@@H](CCCCN)C(=O)N[C@@H](CCCCN)C(=O)N[C@H](C(=O)N[C@H](CCCCN)C(=O)N[C@@H](CCCCN)C(=O)N[C@@H](CC(C)C)C(=O)N[C@@H](CC(C)C)C(=O)N[C@@H](Cc1c[nH]cn1)C(=O)N[C@@H](CCCCN)C(=O)N[C@@H](Cc1ccccc1)C(=O)N[C@@H](CCCCN)C(=O)N[C@@H](CCCCN)C(=O)N[C@@H](Cc1ccccc1)C(N)=O)[C@@H](C)CC [PapMA-17, RWK IFK KIk KLL HKF KKF-NH2] (H-RWKIFKKI[dK]KLLHKFKKF-NH2; N-terminus assumed)
[1]
  Minimal inhibitory concentration MIC: 32 µg/mL (≈ 13.2 µM)
[2]
  Minimal inhibitory concentration MIC: 16 µg/mL (≈ 6.62 µM)
[3]
  Minimal inhibitory concentration MIC: 16 µg/mL (≈ 6.62 µM)
[4]
  Minimal inhibitory concentration MIC: 16 µg/mL (≈ 6.62 µM)
[5]
  Minimal inhibitory concentration MIC: 32 µg/mL (≈ 13.2 µM)
  Peptide MIC, peptide alone: 32 µg/mL
[5]; A. baumannii and S. typhimurium
  Antibacterial activity relative to PapMA-1: at least twice as high
[6]
  Minimal inhibitory concentration MIC: 32 µg/mL (≈ 13.2 µM)
  Peptide MIC, peptide alone: 32 µg/mL
[7]
  Minimal inhibitory concentration MIC: 32 µg/mL (≈ 13.2 µM)
[8]
  Minimal inhibitory concentration MIC: 32 µg/mL (≈ 13.2 µM)
[9]
  Minimal inhibitory concentration MIC: 64 µg/mL (≈ 26.5 µM)
[10]
  Minimal inhibitory concentration MIC: >128 µg/mL
[11]
  Minimal inhibitory concentration MIC: >128 µg/mL
[12]
  Minimal inhibitory concentration MIC: >128 µg/mL
[13]
  Minimal inhibitory concentration MIC: >128 µg/mL
[14]
  Minimal inhibitory concentration MIC: >128 µg/mL
[15]; [21]
  Antibiotic MIC, Erythromycin: >128 µg/mL
  Antibiotic MIC, Linezolid: >128 µg/mL
  Antibiotic MIC, Vancomycin: >128 µg/mL
[15]; [22]
  Antibiotic MIC, Erythromycin: 32 µg/mL
  Antibiotic MIC, Linezolid: >128 µg/mL
  Antibiotic MIC, Vancomycin: >128 µg/mL
[15]; [23]
  Antibiotic MIC, Erythromycin: 16 µg/mL
  Antibiotic MIC, Linezolid: 64 µg/mL
  Antibiotic MIC, Vancomycin: 64 µg/mL
[15]; [24]
  Antibiotic MIC, Erythromycin: 8 µg/mL
  Antibiotic MIC, Linezolid: 16 µg/mL
  Antibiotic MIC, Vancomycin: 32 µg/mL
[15]; [25]
  Antibiotic MIC, Erythromycin: 4 µg/mL
  Antibiotic MIC, Linezolid: 16 µg/mL
  Antibiotic MIC, Vancomycin: 16 µg/mL
[15]; [26]
  Antibiotic MIC, Erythromycin: 0 µg/mL
  Antibiotic MIC, Linezolid: 0 µg/mL
  Antibiotic MIC, Vancomycin: 0 µg/mL
[15]; [27]
  Antibiotic MIC, Erythromycin: 0 µg/mL
  Antibiotic MIC, Linezolid: 0 µg/mL
  Antibiotic MIC, Vancomycin: 0 µg/mL
[15]; [28]
  Antibiotic MIC, Erythromycin: 0 µg/mL
  Antibiotic MIC, Linezolid: 0 µg/mL
  Antibiotic MIC, Vancomycin: 0 µg/mL
[16]; [21]
  Erythromycin MIC during combined treatment with peptide: 32 µg/mL
  Linezolid MIC during combined treatment with peptide: >128 µg/mL
  Vancomycin MIC during combined treatment with peptide: >128 µg/mL
[16]; [22]
  Erythromycin MIC during combined treatment with peptide: 16 µg/mL
  Linezolid MIC during combined treatment with peptide: 128 µg/mL
  Vancomycin MIC during combined treatment with peptide: >128 µg/mL
[16]; [23]
  Erythromycin MIC during combined treatment with peptide: 8 µg/mL
  Linezolid MIC during combined treatment with peptide: 32 µg/mL
  Vancomycin MIC during combined treatment with peptide: 128 µg/mL
[16]; [24]
  Erythromycin MIC during combined treatment with peptide: 4 µg/mL
  Linezolid MIC during combined treatment with peptide: 32 µg/mL
  Vancomycin MIC during combined treatment with peptide: 32 µg/mL
[16]; [25]
  Erythromycin MIC during combined treatment with peptide: 0.5 µg/mL
  Linezolid MIC during combined treatment with peptide: 16 µg/mL
  Vancomycin MIC during combined treatment with peptide: 16 µg/mL
[16]; [26]
  Erythromycin MIC during combined treatment with peptide: 0.25 µg/mL
  Linezolid MIC during combined treatment with peptide: 4 µg/mL
  Vancomycin MIC during combined treatment with peptide: 8 µg/mL
[16]; [27]
  Erythromycin MIC during combined treatment with peptide: 0 µg/mL
  Linezolid MIC during combined treatment with peptide: 0 µg/mL
  Vancomycin MIC during combined treatment with peptide: 0 µg/mL
[16]; [28]
  Erythromycin MIC during combined treatment with peptide: 0 µg/mL
  Linezolid MIC during combined treatment with peptide: 0 µg/mL
  Vancomycin MIC during combined treatment with peptide: 0 µg/mL
[17]; with Erythromycin […] (Conc./MIC 1)
  Peptide MIC: 0 µg/mL
[17]; with Linezolid […] (Conc./MIC 1)
  Peptide MIC: 0 µg/mL
[17]; with Vancomycin 1024 μg/ml (Conc./MIC 1)
  Peptide MIC: 0 µg/mL
[18]; erythromycin 32 μg/ml (Conc./MIC 1/8)
  Peptide MIC during treatment with antibiotic: 2 µg/mL
[18]; erythromycin 64 μg/ml (Conc./MIC 1/4)
  Peptide MIC during treatment with antibiotic: 2 µg/mL
[18]; erythromycin […] (Conc./MIC 1)
  Peptide MIC during treatment with antibiotic: 0 µg/mL
[18]; erythromycin […] (Conc./MIC 1/2)
  Peptide MIC during treatment with antibiotic: 2 µg/mL
[18]; [29]
  Peptide MIC during treatment with antibiotic: 4 µg/mL
[18]; [30]
  Peptide MIC during treatment with antibiotic: 0 µg/mL
[18]; linezolid […] (Conc./MIC 1/2)
  Peptide MIC during treatment with antibiotic: 1 µg/mL
[18]; linezolid […] (Conc./MIC 1/4)
  Peptide MIC during treatment with antibiotic: 4 µg/mL
[18]; [31]
  Peptide MIC during treatment with antibiotic: 2 µg/mL
[18]; [32]
  Peptide MIC during treatment with antibiotic: 1 µg/mL
[18]; vancomycin […] (Conc./MIC 1/4)
  Peptide MIC during treatment with antibiotic: 4 µg/mL
[18]; vancomycin […] (Conc./MIC 1/8)
  Peptide MIC during treatment with antibiotic: 8 µg/mL
[19]; [33]
  Peptide MIC during treatment with antibiotic: 4 µg/mL
[19]; [34]
  Peptide MIC during treatment with antibiotic: 4 µg/mL
[19]; [35]
  Peptide MIC during treatment with antibiotic: 2 µg/mL
[19]; [36]
  Peptide MIC during treatment with antibiotic: 0 µg/mL
[19]; linezolid 32 μg/ml (Conc./MIC 1/8)
  Peptide MIC during treatment with antibiotic: 4 µg/mL
[19]; linezolid 64 μg/ml (Conc./MIC 1/4)
  Peptide MIC during treatment with antibiotic: 2 µg/mL
[19]; linezolid […] (Conc./MIC 1)
  Peptide MIC during treatment with antibiotic: 0 µg/mL
[19]; linezolid […] (Conc./MIC 1/2)
  Peptide MIC during treatment with antibiotic: 2 µg/mL
[19]; [31]
  Peptide MIC during treatment with antibiotic: 0.25 µg/mL
[19]; [32]
  Peptide MIC during treatment with antibiotic: 0 µg/mL
[19]; vancomycin […] (Conc./MIC 1/4)
  Peptide MIC during treatment with antibiotic: 0.5 µg/mL
[19]; vancomycin […] (Conc./MIC 1/8)
  Peptide MIC during treatment with antibiotic: 4 µg/mL
[20]; [33]
  Peptide MIC during treatment with erythromycin: 4 µg/mL
[20]; [34]
  Peptide MIC during treatment with erythromycin: 4 µg/mL
[20]; [35]
  Peptide MIC during treatment with erythromycin: 2 µg/mL
[20]; [36]
  Peptide MIC during treatment with erythromycin: 0 µg/mL
[20]; [29]
  Peptide MIC during treatment with linezolid: 4 µg/mL
[20]; [30]
  Peptide MIC during treatment with linezolid: 0 µg/mL
[20]; linezolid […] (Conc./MIC 1/2)
  Peptide MIC during treatment with linezolid: 1 µg/mL
[20]; linezolid […] (Conc./MIC 1/4)
  Peptide MIC during treatment with linezolid: 2 µg/mL
[20]; [31]
  Peptide MIC during treatment with vancomycin: 2 µg/mL
[20]; [32]
  Peptide MIC during treatment with vancomycin: 1 µg/mL
[20]; vancomycin […] (Conc./MIC 1/4)
  Peptide MIC during treatment with vancomycin: 4 µg/mL
[20]; vancomycin […] (Conc./MIC 1/8)
  Peptide MIC during treatment with vancomycin: 4 µg/mL
